Test results published in article PMC11172662, “Anticancer Effect of Hemin through ANO1 Inhibition in Human Prostate Cancer Cells” (International Journal of Molecular Sciences, 2024).

Columns and labels:
ANO2 = target: T1, ANO2 (Homo sapiens, UniProt Q9NQ90); test: YFP fluorescence quenching assay in FRT cells expressing human ANO2; format: cell-based
T1 sequence (Q9NQ90 1-998): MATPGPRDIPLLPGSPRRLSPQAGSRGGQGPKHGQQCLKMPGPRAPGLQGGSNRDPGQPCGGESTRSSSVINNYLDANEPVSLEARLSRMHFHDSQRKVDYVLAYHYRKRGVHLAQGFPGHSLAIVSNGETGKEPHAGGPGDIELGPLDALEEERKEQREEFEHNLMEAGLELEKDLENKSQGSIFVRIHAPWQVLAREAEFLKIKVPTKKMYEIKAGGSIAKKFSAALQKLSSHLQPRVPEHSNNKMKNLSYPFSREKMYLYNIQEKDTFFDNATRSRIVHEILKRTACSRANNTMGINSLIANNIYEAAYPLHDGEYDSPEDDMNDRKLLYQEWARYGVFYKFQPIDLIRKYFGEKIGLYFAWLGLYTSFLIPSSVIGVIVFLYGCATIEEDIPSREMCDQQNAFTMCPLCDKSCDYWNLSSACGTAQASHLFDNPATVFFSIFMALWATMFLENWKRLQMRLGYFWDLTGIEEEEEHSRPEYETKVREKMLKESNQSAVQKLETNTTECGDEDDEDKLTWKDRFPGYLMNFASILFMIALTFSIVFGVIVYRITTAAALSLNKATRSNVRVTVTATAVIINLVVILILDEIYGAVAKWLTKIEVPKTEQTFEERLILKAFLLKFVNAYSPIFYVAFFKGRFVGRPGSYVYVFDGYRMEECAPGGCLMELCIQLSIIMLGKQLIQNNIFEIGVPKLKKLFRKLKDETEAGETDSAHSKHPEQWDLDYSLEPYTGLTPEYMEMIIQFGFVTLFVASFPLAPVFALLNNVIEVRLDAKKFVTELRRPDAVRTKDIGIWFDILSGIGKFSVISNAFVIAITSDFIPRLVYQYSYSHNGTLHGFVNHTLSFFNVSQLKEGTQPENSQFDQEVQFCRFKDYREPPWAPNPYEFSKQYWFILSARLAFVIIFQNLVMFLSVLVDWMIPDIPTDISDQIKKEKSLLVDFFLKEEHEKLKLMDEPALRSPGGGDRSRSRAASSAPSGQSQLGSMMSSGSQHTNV

[1] = target: T2, ANO1 (anoctamin1, TMEM16A) (Homo sapiens, UniProt Q5XXA6); test: YFP fluorescence quenching assay in FRT cells expressing human ANO1; confirmed by short-circuit current (PC-3 cells IC50 […]); format: cell-based
T2 sequence (Q5XXA6 1-986): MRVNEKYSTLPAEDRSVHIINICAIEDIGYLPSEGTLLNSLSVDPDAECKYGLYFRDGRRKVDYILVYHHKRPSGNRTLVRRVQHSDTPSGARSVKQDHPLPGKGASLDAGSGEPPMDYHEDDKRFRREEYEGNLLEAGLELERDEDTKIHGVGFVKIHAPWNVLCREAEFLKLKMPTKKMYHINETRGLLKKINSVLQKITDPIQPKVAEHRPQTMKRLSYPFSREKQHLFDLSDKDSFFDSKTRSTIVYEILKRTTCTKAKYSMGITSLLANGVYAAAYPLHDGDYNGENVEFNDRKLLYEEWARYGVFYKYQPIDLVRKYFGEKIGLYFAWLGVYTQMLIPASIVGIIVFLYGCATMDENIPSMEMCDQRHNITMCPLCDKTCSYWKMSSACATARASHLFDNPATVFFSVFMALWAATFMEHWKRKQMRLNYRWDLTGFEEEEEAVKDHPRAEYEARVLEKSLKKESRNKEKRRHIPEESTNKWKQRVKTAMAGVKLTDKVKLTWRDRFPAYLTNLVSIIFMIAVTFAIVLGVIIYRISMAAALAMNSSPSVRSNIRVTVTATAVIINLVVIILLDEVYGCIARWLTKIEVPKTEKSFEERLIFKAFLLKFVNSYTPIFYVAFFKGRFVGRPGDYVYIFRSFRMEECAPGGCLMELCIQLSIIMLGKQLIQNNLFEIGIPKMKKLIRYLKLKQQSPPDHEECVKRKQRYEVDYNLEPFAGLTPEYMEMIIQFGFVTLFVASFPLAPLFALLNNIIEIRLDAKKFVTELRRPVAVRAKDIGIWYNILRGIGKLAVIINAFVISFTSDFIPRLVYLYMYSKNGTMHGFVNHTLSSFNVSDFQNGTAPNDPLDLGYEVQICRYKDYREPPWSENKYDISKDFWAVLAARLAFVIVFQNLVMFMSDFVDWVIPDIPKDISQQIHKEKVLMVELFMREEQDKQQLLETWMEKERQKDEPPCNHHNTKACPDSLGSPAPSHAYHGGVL

How did the IC50 (ANO2) turn out when `C=CC1=C(C)C2=Cc3c(C=C)c(C)c4[n]3[Fe]([Cl])[n]3c(c(C)c(CCC(=O)O)c3=CC3=NC(=C4)C(C)=C3CCC(=O)O)=CC1=N2` [hemin] was run?
Its IC50 is 4090 nM.

What about the IC50 [1] of the same compound?
The IC50 was 510 nM.
